Experimental data reported in paper PMC5309220, “Screening for Small Molecule Inhibitors of Statin-Induced APP C-terminal Toxic Fragment Production” (Frontiers in Pharmacology, 2017).
Read-outs that look alike come from different tables or passages of the source.

Columns and labels:
[1] = system: cerivastatin-induced APPΔC31 production in CHO-7W cells; assay: APPΔC31 ELISA validation assay, cerivastatin-induced; format: cell-based, Chinese hamster; conditions: 24 h; for inhibition of APPΔC31 production (in words) / IC50: CHO-7W; for inhibition of APPΔC31 production (in words): thapsigargin 0.033-0.3 μM, 2,5-Di-tert-butylhydroquinone 1 and 10 μM; for APPΔC31 Inh. (mean %): CHO-7W cells, test concentration not given; for IC50: Cricetulus griseus, read-out: IC50 (E), APPΔC31 inhibition
Method: The APPΔC31 ELISA developed in partnership with Enzo Life Sciences (ADI-900-227) follows a standard sandwich ELISA design wherein a monoclonal N-terminal APP-specific antibody is used to coat the wells of the microtiter plate (capture antibody) and the anti-APPΔC31 cleavage site-specific polyclonal antibody serves as the detection antibody. An HRP-conjugated secondary antibody is then added and a colorimetric signal generated by enzymatic conversion of the tetramethylbenzidine (TMB) substrate. Protein levels were first determined using a colorimetric coomassie assay (Coomassie Plus, Thermo).
A subset of hits from our HTS was validated in a secondary assay. […] Thapsigargin also acts as a sarco/endoplasmic reticulum calcium ATPase (SERCA) inhibitor. Therefore, another SERCA inhibitor, 2,5-Di-tert-butylhydroquinone, was also added to the testing. In this secondary assay, CHO-7W cells were cultured as described above and plated into 24-well dishes at ∼200K/well. […] These hits were selected for their potency in primary screen, their structural features, their known activities, and availability of compound for additional testing. There were cerivastatin-only (negative control), + QVD-OPh (positive control), and for viability, vehicle-only (negative) controls. Cells were harvested by removing the media to a tube, adding […] trypsin to detach cells then neutralizing with media. […] Cells were centrifuged at 5000 rpm (2300 × g) for 5 min. Cell pellets were frozen until use. Forty μL cold RIPA buffer plus complete protease inhibitors (Roche) was added to each pellet and the pellets were reconstituted by pipetting up and down, incubating on ice for 30 min, vortexing, and centrifugation as above. Cell lysate supernatants were then assayed by APPΔC31 ELISA as described above. For most compounds, multiple/repeat studies were performed and two wells used for each condition. Statistical comparison was performed using one-way ANOVA for multiple comparisons, with a Dunnett post hoc test to compare each condition to the control. Further dose-response studies were performed on select compounds.

[2] = system: CHO-7W cells; conditions: with 10 μM cerivastatin
[3] = system: APPΔC31 production in CHO-7W cells; assay: Statin induction of APPΔC31, ELISA; format: cell-based, Chinese hamster; conditions: 24 h
Method: An HRP-conjugated secondary antibody is then added and a colorimetric signal generated by enzymatic conversion of the tetramethylbenzidine (TMB) substrate. Protein levels were first determined using a colorimetric coomassie assay (Coomassie Plus, Thermo).
APPΔC31 was determined in cell lysates by ELISA.

[4] = system: cerivastatin-induced APPΔC31 in CHO-7W cells; assay: APPΔC31 AlphaLISA dose-response, cerivastatin-induced; format: cell-based, Chinese hamster; conditions: 24 h; for IC50: Cricetulus griseus
Method: The APPΔC31 AlphaLISA assay (Figures 2C–E) was run directly in the plate with the cell lysate as described above in “AlphaLISA to detect APPΔC31.” APPΔC31 levels were measured using the Envision plate reader and data were normalized to DMSO (100% APPΔC31 production) and Q-VD-OPh (MP Biomedicals) pan-caspase inhibitor at 30 μM (0%); these controls were present on each plate. In addition, some compounds of interest were further analyzed in a dose-response curve to determine IC50 values.
The broad-spectrum pan-caspase inhibitor Q-VD-OPh served as the positive control.
Lysates were prepared and APPΔC31 determined by ELISA. (B) CHO-7W cells were treated with 10 μM cerivastatin plus increasing doses of caspase and MEK inhibitors for 24 h. Lysates were prepared and APPΔC31 determined by AlphaLISA. Click here for additional data file.

[5] = biological target: caspase 8; conditions: potency stated for the inhibitor, no reference given; cited from earlier work
[6] = PAMPA / immobilized artificial membrane (IAM.PC.DD2) chromatography; format: in vitro ADME
[7] = system: cerivastatin-induced APPΔC31 in CHO-7W cells; assay: APPΔC31 immunoblot of CHO-7W cell lysates; format: cell-based, Chinese hamster; conditions: compound at 30 μM, 10 μM cerivastatin, 24 h
Method: For immunoprecipitation, approximately 300 μg cell lysate supernatants were brought to 250 μL with cold RIPA + PI buffer in microfuge tubes. One μL of 6E10 APP antibody (Covance) was added and the mixture was rotated overnight in a cold room. The next day, 25 μL of protein A/G beads (Santa Cruz Biotech) were added and the samples were rotated for 1.5 h in the cold room. The beads were then centrifuged down and washed four times with cold PBS. Forty μL 1x LDS sample buffer + DTT was added to the pellets, which were heated to 70°C for 10 min, vortexed and centrifuged. Supernatants were loaded onto Nupage 4–12% Bis-Tris gels (Life Technologies) for electrophoresis and were then transferred to 0.2 μm PVDF membrane for immunoblotting with the anti-APPΔC31 antibody.
(A) CHO-7W cells were treated with 10 μM cerivastatin (CS) along with varying concentrations of Q-VD-OPh (QVD) for 24 h. Cell lysates were prepared and immunoprecipitated with anti-APP (6E10) overnight at 4°C and then incubation with Protein A/G beads (Santa Cruz Biotech). The resulting pellets were incubated, electrophoresed using Nupage 4–12% Bis-Tris gels (Life Technologies) and the 0.2 μm PVDF membrane probed with anti-APPΔC31. (B) CHO-7W cells were treated with increasing concentrations of CS or 10 μM CS together with increasing concentrations of 3′-fluorobenzylspiperone maleate (3′-F-Sp) or 30 μM QVD for 24 h. […]

[8] = system: sAPPα in CHO-7W cultures; assay: sAPPα ELISA in cell media; format: cell-based, Chinese hamster; conditions: QVD, Sp, 3′F-Sp at 10, 30, and 30 mM, respectively (so in the source), with 10 μM cerivastatin, 24 h, vs CS alone, n = 2
Method: (§1) In an additional study (Supplementary Figure S5A), measurement of the α secretase fragment of full length (FL) APP – soluble APP alpha (sAPPα) – was performed using cell media by ELISA (IBL). Furthermore, in two studies (Supplementary Figures S5B,C), total protein levels in CHO-7W cell lysates were determined by Coomassie Plus protein assay (Pierce).
(§2) Supplementary file Data_Sheet_1.docx: FIGURE S5 Effect of lead compounds on protein concentration and sAPPα. […] (B) Total protein from lysates of CHO-7W cells treated with either 30 μM QVD or 10 μM Sp alone for 24 h was similar to the vehicle control (n = 1). (C) Total protein from CHO-7W lysates treated with 10 μM CS alone or in combination with QVD, Sp, or 3′F-Sp at the concentrations shown increased (n = 1). Statistical analysis was performed using one-way ANOVA and Dunnett post-test for comparison to the 10 μM CS control (^∗∗p < 0.001, ^∗∗∗p < 0.0001). Click here for additional data file.

[9] = system: CHO-7W cells; assay: Total protein in CHO-7W cell lysates (Coomassie Plus); format: cell-based, Chinese hamster; conditions: n = 1; for effect on protein concentration in lysates, compound alone (in words): QVD alone at 30 μM, spiperone alone at 10 μM, 24 h, vs vehicle; for effect on total protein concentration with cerivastatin (in words): QVD, spiperone, 3′fluorobenzylspiperone at 30, 10, and 10 μM, respectively, with 10 μM cerivastatin
Method: as §1, §2

[10] = In vivo pharmacokinetic analysis of spiperone; parameters: species or system mice (C57B6)
Method: As PAMPA is merely a predictive analysis of brain permeability, a pharmacokinetic (PK) study with spiperone was performed. […] Another 5 mice were injected intraperitoneally (IP) at the same dose. One mouse was euthanized from each dosing route group at 1, 2, 4, 6, and 8 h. This is done by ketamine/xylazine over- anesthesia followed by blood collection for plasma isolation by cardiac puncture, and transcardial perfusion of tissue with saline to remove residual blood from the brain. Both plasma and brain tissue were sent to Integrated Analytical Solutions (IAS, Berkeley, CA, USA) for compound level analysis using an LC-MS-MS method.

[11] = low concentrations (thapsigargin 0.033-0.3 μM, 2,5-Di-tert-butylhydroquinone 1 and 10 μM)
[12] = (E) ELISA, cerivastatin-induced
[13] = AlphaLISA dose-response (Figure 5C), cerivastatin-stimulated
[14] = dose-response curves, 10 μM cerivastatin, AlphaLISA

CC(C)(C)c1cc(O)c(C(C)(C)C)cc1O [2,5-Di-tert-butylhydroquinone]
inhibition of APPΔC31 production (in words) ([1]; 10 μM cerivastatin): very effective
cell survival rescue (in words) [2, 11]: highest cell survival

CC(C)c1c(C(=O)Nc2ccccc2)c(-c2ccccc2)c(-c2ccc(F)cc2)n1CC[C@@H](O)C[C@@H](O)CC(=O)O [Atorvastatin]
induction of APPΔC31 (in words) ([3]; statins at 1, 5 and 10 μM): much less effective

FC(F)(F)c1cccc(-c2csc(C3COc4ccccc4O3)n2)c1 (centres unmarked) [Caspase Inhibitor X]
inhibition of cerivastatin-induced APPΔC31 (in words) ([4]; highest concentration tested (30 μM), 10 μM cerivastatin, AlphaLISA): somewhat effective
IC50 [5]: 2.7 µM

O=c1c(O)c(-c2ccc(O)cc2)oc2cc(O)cc(O)c12 [Kaempferol]
APPΔC31 Inh. (mean %) ([1]; 10 μM cerivastatin): 65%
IC50 [1, 12]: > 10 µM

O=c1[nH]c2ccccc2n1C1CCN(CCCC(c2ccc(F)cc2)c2ccc(F)cc2)CC1 [Pimozide]
% Min (APPΔC31 dose-response) [4, 13]: 19%
IC50 ([4]; (A) AlphaLISA, cerivastatin-induced, read-out: IC50 (A), APPΔC31 inhibition): 3.6 µM
APPΔC31 Inh. (mean %) ([1]; 10 μM cerivastatin): 98%
KIAM (IAM capacity factor) ([6]; IAM.PC.DD2 column, water/methanol gradient): 3.3
cell survival rescue (in words) ([2]; at 30 μM, among hits from HTS): greatest cell survival rescue effects

CC(C)C(NC(=O)c1ccc2ccccc2n1)C(=O)NC(CC(=O)O)C(=O)COc1c(F)cccc1F (centres unmarked) [QVD-OPh, Q-VD-OPh]
% Min (APPΔC31 dose-response) [4, 13]: 0%
IC50 ([4]; AlphaLISA dose-response (Figure 5C), cerivastatin-stimulated, read-out: IC50, APPΔC31 inhibition): 7.5 µM
APPΔC31 Inh. (mean %) ([1]; 10 μM cerivastatin): 95%
IC50 ([1]; ELISA, 10 μM cerivastatin): 7.5 µM
effect on CS-induced APPΔC31 by immunoblot (in words) [7]: eliminated the cerivastatin-induced APPΔC31 increase
effect on sAPPα (in words) [8]: increased sAPPα
effect on protein concentration in lysates, compound alone (in words) [9]: did not lower protein concentration
effect on total protein concentration with cerivastatin (in words) [9]: increased total protein concentration
effect on simvastatin-induced APPΔC31 increase (in words) ([3]; 30 μM inhibitor plus 5 μM simvastatin): prevented 5 μM simvastatin-induced APPΔC31 increases

CO[C@H]1C[C@@H]2CC[C@@H](C)[C@@](O)(O2)C(=O)C(=O)N2CCCC[C@H]2C(=O)O[C@H]([C@H](C)C[C@@H]2CC[C@@H](O)[C@H](OC)C2)CC(=O)[C@H](C)/C=C(\C)[C@@H](O)[C@@H](OC)C(=O)[C@H](C)C[C@H](C)/C=C/C=C/C=C/1C [Rapamycin]
APPΔC31 Inh. (mean %) ([1]; 10 μM cerivastatin): 99%
IC50 [1, 12]: > 10 µM
cell survival rescue (in words) ([2]; at 30 μM, among hits from HTS): greatest cell survival rescue effects

Oc1ccc(-c2nc(-c3ccncc3)c(-c3ccc(F)cc3)[nH]2)cc1 [SB202190]
APPΔC31 Inh. (mean %) ([1]; 10 μM cerivastatin): 58%
IC50 [1, 12]: > 10 µM

Cn1cc(C2=C(c3ccc(Cl)cc3Cl)C(=O)NC2=O)c2ccccc21 [SB216763]
APPΔC31 Inh. (mean %) ([1]; 10 μM cerivastatin): 54%
IC50 [1, 12]: > 10 µM

N#C/C(=C(/N)Sc1ccc(N)cc1)c1ccccc1C(F)(F)F [SL327]
inhibition of cerivastatin-induced APPΔC31 (in words) [4, 14]: ineffective

O=C(CCCN1CCC2(CC1)C(=O)NCN2c1ccccc1)c1ccc(F)cc1 [Spiperone]
% Min (APPΔC31 dose-response) [4, 13]: 23%
effect on sAPPα (in words) [8]: increased sAPPα
effect on protein concentration in lysates, compound alone (in words) [9]: did not lower protein concentration
effect on total protein concentration with cerivastatin (in words) [9]: increased total protein concentration
BBB Penetration Prediction ([6]; from KIAM/MW^4 x 10^10, cut-off 0.85): high (If KIAM/MW^4x10^10 > 0.85 the BBB penetration is predicted to be high)
Kp ([10]; male, C57B6, brain and plasma, other: subcutaneous and intraperitoneal (both routes), 0.25 mg/mouse, SQ and IP routes, read-out: brain:plasma ratio): ~0.5
Cmax ([10]; male, C57B6, brain, mouse, intraperitoneal (IP), 10 mg/kg, n = 1 per time point, read-out: peak brain level (Cmax)): ~205 ng/g
time of peak brain level ([10]; mouse, IP injection at 10 mg/kg): 1 h
time of peak brain level ([10]; mouse, both the subcutaneous and intraperitoneal routes): 1 h
peak brain level ([10]; mouse, subcutaneous, 50 μL of 5 mg/mL in DMSO, n = 1 per time point): ~70 ng/g
cell survival rescue (in words) ([2]; at 30 μM, among hits from HTS): greatest cell survival rescue effects

CC/C(=C(\c1ccccc1)c1ccc(OCCN(C)C)cc1)c1ccccc1 [Tamoxifen]
APPΔC31 Inh. (mean %) ([1]; 10 μM cerivastatin): 56%

C/C=C(/C)C(=O)O[C@H]1C(C)=C2[C@H]([C@@H]1OC(=O)CCCCCCC)[C@@](C)(OC(C)=O)C[C@H](OC(=O)CCC)[C@@]1(O)[C@H]2OC(=O)[C@@]1(C)O [Thapsigargin]
APPΔC31 Inh. (mean %) ([1]; 10 μM cerivastatin): 97%
inhibition of APPΔC31 production (in words) ([1]; 10 μM cerivastatin): remarkably potent inhibitor
IC50 [1, 12]: 0.077 µM
cell survival rescue (in words) [2, 11]: highest cell survival

CS/C(N)=C(C#N)/C(C#N)=C(\N)SC [U0124]
inhibition of cerivastatin-induced APPΔC31 (in words) [4, 14]: ineffective

N#CC(=C(/N)Sc1ccccc1N)/C(C#N)=C(/N)Sc1ccccc1N [U0126]
reduction of APPΔC31 ([4]; from 10 to 50 μM, 10 μM cerivastatin, AlphaLISA): ~25%
